Results as given in US9358252B2, “Polysaccharide compositions and methods of use for the treatment and prevention of disorders associated with progenitor cell mobilization” (MOMENTA PHARMACEUTICALS, INC., priority 2007, dated 2016).

What was measured:
[1] = tested on: endothelial progenitor cells (EPC); test: EPC mobilization in normal mice, single MONC402 dose; format: in vivo; settings: G-CSF 200 μg/kg 3 days; docetaxel i.p. 40 mg/kg; cisplatin i.p. 6 mg/kg; 24 h
Description: In one experiment, normal mice were treated with G-CSF (s.c., 3 consecutive days), docetaxel or cisplatin (one i.p. dose) with or without simultaneous MONC402 treatment (one s.c. dose). EPC mobilization was monitored 24 h later. Mice (8 mice/group) were dosed s.c. with Saline or MONC402 (40 mg/kg) (or DC101 at 40 mg/kg for control with docetaxel). About 30 min later, mice were given docetaxel (i.p., 40 mg/kg), cisplatin (i.p., 6 mg/kg), or saline control. As a positive control, 2 groups of mice were also dosed with G-CSF […]. (200 μg/kg) for 3 days, either alone or in combination with a single dose of MONC402 (s.c. at 40 mg/kg) on the last day. 24 h later, the mice were euthanized, and 0.5-0.8 mL of blood taken by cardiac puncture:
About 300 μL of whole blood was transferred directly into 14 mL of lysis buffer for flow cytometry of EPC. The remaining 300-600 μL were processed for serum (SDF-1α). For flow cytometry, lysed cells were washed and blocked, then stained with CD13-FITC, CD117-PE, 7-AAD, VEGFR2-APC, and CD45-PE/Cy7. A total of 50,000 cells were acquired per sample in the PBMNC gate.

4T1 cells [2] = test: 4T1 breast cancer metastasis to the lung model, daily treatment; format: in vivo, BALB/c mice; settings: Cisplatin weekly from day 5
Description: Female BALB/c mice 8 weeks of age (WOA) were injected with 8×10^4 4T1 cell intra mammary fat pad. Daily treatment with saline or MONC402 with or without weekly treatment of cisplatin started on day 5. Primary tumors were removed on day 9 and weighed.

4T1 cells [3] = test: Second 4T1 experiment, osmotic pump delivery; format: in vivo, BALB/c mice; settings: MONC402 20 mg/kg/day osmotic pump; Cisplatin 1.25 mg/kg weekly; day 32
Description: FIG. 2 is a bar graph showing the effect of a polysaccharide preparation described herein in a 4T1 therapeutic model of breast cancer metastasis to the lung. Lung tumor burden (lung weight-normal lung weight) was determined on day 32 for female BALB/c mice (8 weeks old) challenged with intra-mammary fat pad injection of 8×10^4 4T1 cells and treated as indicated starting on day 4. In a second 4T1 experiment, female BALB/c mice 8 WOA were injected with 8×10^4 4T1 cells intra mammary fat pad. Continuous osmotic pump delivery of saline or MONC 402 with weekly treatment of saline or Cisplatin started on day 4. Primary tumors were removed on day 9. […] The experiment terminated on day 32 and different samples were taken. 6 mice were either found dead or were terminated early due to worsened overall condition. 4T1 lung metastases were determined by lung weight, lung tumor nodule quantification including nodule number, size and calculated tumor volume, as well as histological quantification.

[4] = tested on: endothelial progenitor cells (EPC); test: EPC mobilization in mice, second experiment (daily MONC402 with G-CSF); format: in vivo; settings: G-CSF 200 μg/kg s.c. 5 consecutive days; docetaxel i.p. 40 mg/kg
Description: In a second experiment, it was tested if daily dosing for 5 days with MONC402 would generate a stronger inhibitory effect on EPC mobilization caused by treatment with a taxane.
Mice (10 mice/group) were dosed s.c. with Saline or MONC402 (40 mg/kg), or DC101 (40 mg/kg, as a positive inhibition control with docetaxel). About 30 min later, mice were given docetaxel (i.p., 40 mg/kg) or saline control. As a positive control, 2 groups of mice were also dosed with G-CSF (200 μg/kg) s.c. for 5 consecutive days±daily MONC402. 24 h later, the mice were euthanized, and 500-800 μL of blood taken by cardiac puncture. 150 μL were transferred into 5 mL of lysis buffer for flow cytometric analysis of EPC. The remaining 350-500 μL were processed for serum (SDF-1α). For flow cytometry, cells were washed and blocked and then stained with CD13-FITC, CD117-PE, 7-AAD, VEGFR2-APC, and CD45-PE/Cy7. A total of 50,000 cells were acquired per sample in the PBMNC gate.

[5] = tested on: endothelial progenitor cells (EPC); test: Docetaxel induced EPC mobilization in 4T1 tumor bearing mice, MONC402 via osmotic pump; format: in vivo; settings: Docetaxel 40 mg/kg i.p. Day 6; MONC402 osmotic pump 40 mg/kg/day monotherapy
Description: A third experiment was conducted to evaluate the effect of MONC402 on EPC mobilization in response to treatment with docetaxel in 4T1 tumor bearing mice.
4T1 tumors were implanted on Day 0 at 1×10^5 cells/mouse into the 4th mammary fat pad. Pumps with Saline or MONC402 were implanted on Day 0, immediately after tumor cell injections. Mice were randomized to the following groups: • 1. Saline Control, n=8 • 2. Docetaxel, 40 mg/kg, Day 6, n=8 • 3. M402, pump, 40 mg/kg/day, Day 0, n=8 • 4. Docetaxel, 40 mg/kg, Day 6+M402, pump, 40 mg/kg/day, Day 0, n=8
Docetaxel or Saline was administered i.p. on Day 6 in the AM. Four h later, mice were bled by submandibular plexus for EPC profiling and soluble factor analysis. Primary tumors were removed on Day 9 for histological analyses. Blood was also collected for soluble factor analyses (72 h after docetaxel dosing). Serum samples were analyzed using a 19-plex Luminex kit. In addition, samples were also tested for SDF-1α levels by ELISA.

[6] = tested on: C170HM2 human colorectal tumor cells; test: C170HM2 colon cancer metastasis to the liver model; format: in vivo, MF1 nude (nu/nu) athymic mice; settings: 25 mg/kg i.v. cycled on days 1, 3, 5, 7; liver tumors day 35
Description: Liver metastasis was initiated by intraperitoneal injection of C170HM2 human colorectal tumor cells into male MF1 nude (nu/nu) athymic mice. 5FU/leucovorin was used as a positive control.
C170HM2 cells were maintained in vitro in RPMI culture medium (Sigma) containing 10% (v/v) heat inactivated fetal bovine serum and 2 mM L-glutamine at 37° C. in 5% CO2 and humidified conditions. Cells from sub-confluent monolayers were harvested with 0.025% EDTA, washed in culture medium and re-suspended in sterile phosphate buffered saline, pH 7.4 (PBS) for in vivo administration. 1.5×10^6 cells in a volume of 1 ml were injected intraperitoneally into 65 mice, and the mice were allocated into treatment groups as below.
Treatment was initiated on day 1 following cell injection and continued until day 35 or until the clinical condition of the animal required termination. Groups 5 and 6 missed one dose on day 5. No adverse affects of the test compounds in mice bearing the tumors were observed.
The study was terminated on day 35, and the tumors in the liver were excised and weighed. The numbers of lung nodules are also counted.

Q: N.N.[Cl][Pt][Cl] [Cisplatin, cisplatin] was tested. Which “EPC mobilization compared to Saline control” value [1] did it give?
A: did not show this effect

Q: What about the “Average lung tumor size” value (4T1 cells [2]) of the same molecule?
A: 1.41

Q: What about the Average tumor size (4T1 cells [2]) of the same molecule?
A: 1.36

Q: What about the “Lung tumor nodule #/animal” value (4T1 cells [2]) of the same molecule?
A: 5.6 ± 4.4

Q: What about the Total tumor nodule (4T1 cells [2]) of the same molecule?
A: 89

Q: And the Total tumor volume (4T1 cells [2])?
A: 134.13

Q: And the 4T1 lung metastasis (4T1 cells [3])?
A: significant anti-tumor efficacy

Q: What does the source list for CC(=O)O[C@@]12CO[C@@H]1C[C@H](O)[C@@]1(C)C(=O)[C@H](O)C3=C(C)[C@@H](OC(=O)[C@H](O)[C@@H](NC(=O)OC(C)(C)C)c4ccccc4)C[C@@](O)([C@@H](OC(=O)c4ccccc4)[C@H]21)C3(C)C [Docetaxel, docetaxel]?
A: EPC mobilization [4]: significant increase; EPC mobilization compared to Saline control [1]: significant increase; EPC in the blood at 4 h [5]: significant increase

Q: Which “Mean tumor area (% of vehicle)” value [6] does the source give for 5FU/leucovorin here?
A: 15.7 % of vehicle

Q: And the “Mean tumor area (mm^2)” value [6]?
A: 13.12 mm^2

Q: What about the “Mean tumor weight” value [6] of the same molecule?
A: 0.037 g

Q: And the “Mean tumor weight (% of vehicle)” value [6]?
A: 11.94 % of vehicle

B1: granulocyte colony stimulating factor (protein, UniProt P09919 31-207, looked up)
Granulocyte …: TPLGPASSLPQSFLLKCLEQVRKIQGDGAALQEKLVSECATYKLCHPEELVLLGHSLGIPWAPLSSCPSQALQLAGCLSQLHSGLFLYQGLLQALEGISPELGPTLDTLQLDVADFATTIWQQMEELGMAPALQPTQGAMPAFASAFQRRAGGVLVASHLQSFLEVSYRVLRHLAQP
notes: growth factor used as positive control for EPC and MDSC mobilization
Q: With B1 as the molecule, how does the EPC mobilization [4] read?
A: significant increase

Q: What about the “EPC mobilization compared to Saline control” value [1] of the same molecule?
A: significant increase
